Counter-ions that a name gives are not always drawn.
Key:
Settings in all cases: exposure time: 72 h
E34 [1] = patient-derived glioblastoma stem cells of proneural subtype; assay: surviving fraction (nuclei count normalised to DMSO); higher = more cells surviving (less toxic)
E21 [2] = patient-derived glioblastoma stem cells of mesenchymal subtype; assay: as above
FT3469 [3] = normal neural stem cell line; assay: as above
E13 [4] = patient-derived glioblastoma stem cells of classical subtype; assay: as above
E31 [5] = patient-derived glioblastoma stem cells of proneural subtype; assay: as above
E28 [6] = patient-derived glioblastoma stem cells of classical subtype; assay: as above
E57 [7] = patient-derived glioblastoma stem cells of mesenchymal subtype; assay: as above
E34 [8] = assay: phenotypic distance (Euclidean, principal components) from DMSO controls (arbitrary units); higher = stronger morphological change
E21 [9] = assay: as above
FT3469 [10] = assay: as above
E13 [11] = assay: as above
E31 [12] = assay: as above
E28 [13] = assay: as above
E57 [14] = assay: as above
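Throughout, for phenotypic distance (Euclidean, principal components) from DMSO controls: cell Painting imaging in 384-well plates, CellProfiler features reduced to at least 20 principal components, Euclidean distance versus same-plate DMSO vehicle wells (0.1% v/v), median over six images per well.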
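Throughout, for surviving fraction (nuclei count normalised to DMSO): nuclei counted by high-content imaging of Hoechst-stained cells in laminin-coated 384-well plates, relative to 0.1% DMSO vehicle wells, with staurosporine as cell-death control.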

Cc1cc(C(C)(C)CC(C)(C)C)ccc1OCCOCC[N+](C)(C)Cc1ccccc1 [Methyl benzethonium chloride]
Settings	phenotypic distance	surviving fraction
E13 [4], 4.1 nM	–	1.06
E13 [4], 37 nM	–	0.985
E13 [4], 111.1 nM	–	1
E13 [4], 333.3 nM	–	0.905
E13 [4], 1000 nM	–	0.77
E13 [4], 3000 nM	–	0.0607
E13 [11], 4.1 nM	0.567	–
E13 [11], 37 nM	0.631	–
E13 [11], 111.1 nM	0.7	–
E13 [11], 333.3 nM	1.46	–
E13 [11], 1000 nM	2.26	–
E13 [11], 3000 nM	7.09	–
E21 [2], 4.1 nM	–	1.05
E21 [2], 37 nM	–	1.08
E21 [2], 111.1 nM	–	1.13
E21 [2], 333.3 nM	–	1.09
E21 [2], 1000 nM	–	1.11
E21 [2], 3000 nM	–	0.0579
E21 [9], 4.1 nM	0.505	–
E21 [9], 37 nM	0.8	–
E21 [9], 111.1 nM	1.42	–
E21 [9], 333.3 nM	1.89	–
E21 [9], 1000 nM	1.88	–
E21 [9], 3000 nM	7.45	–
E28 [6], 4.1 nM	–	1.18
E28 [6], 37 nM	–	1.12
E28 [6], 111.1 nM	–	1.01
E28 [6], 333.3 nM	–	1.03
E28 [6], 1000 nM	–	0.915
E28 [6], 3000 nM	–	0.122
E28 [13], 4.1 nM	0.909	–
E28 [13], 37 nM	0.85	–
E28 [13], 111.1 nM	0.845	–
E28 [13], 333.3 nM	1.63	–
E28 [13], 1000 nM	1.45	–
E28 [13], 3000 nM	5.99	–
E31 [5], 4.1 nM	–	1.14
E31 [5], 37 nM	–	1.3
E31 [5], 111.1 nM	–	0.971
E31 [5], 333.3 nM	–	1.04
E31 [5], 1000 nM	–	0.959
E31 [5], 3000 nM	–	0.0251
E31 [12], 4.1 nM	0.64	–
E31 [12], 37 nM	1.09	–
E31 [12], 111.1 nM	0.959	–
E31 [12], 333.3 nM	1.67	–
E31 [12], 1000 nM	1.56	–
E31 [12], 3000 nM	10.6	–
E34 [1], 4.1 nM	–	1.05
E34 [1], 37 nM	–	1.16
E34 [1], 111.1 nM	–	1.28
E34 [1], 333.3 nM	–	1.15
E34 [1], 1000 nM	–	0.97
E34 [1], 3000 nM	–	0.507
E34 [8], 4.1 nM	0.669	–
E34 [8], 37 nM	1.03	–
E34 [8], 111.1 nM	3.75	–
E34 [8], 333.3 nM	1.62	–
E34 [8], 1000 nM	1.37	–
E34 [8], 3000 nM	2.97	–
E57 [7], 4.1 nM	–	1.1
E57 [7], 37 nM	–	1.08
E57 [7], 111.1 nM	–	0.952
E57 [7], 333.3 nM	–	1.08
E57 [7], 1000 nM	–	0.992
E57 [7], 3000 nM	–	0.232
E57 [14], 4.1 nM	0.767	–
E57 [14], 37 nM	0.775	–
E57 [14], 111.1 nM	0.964	–
E57 [14], 333.3 nM	1.11	–
E57 [14], 1000 nM	1.42	–
E57 [14], 3000 nM	5.11	–
FT3469 [3], 4.1 nM	–	1.08
FT3469 [3], 37 nM	–	1.23
FT3469 [3], 111.1 nM	–	1.28
FT3469 [3], 333.3 nM	–	0.993
FT3469 [3], 1000 nM	–	0.937
FT3469 [3], 3000 nM	–	0.135
FT3469 [10], 4.1 nM	0.966	–
FT3469 [10], 37 nM	0.81	–
FT3469 [10], 111.1 nM	1.14	–
FT3469 [10], 333.3 nM	1.12	–
FT3469 [10], 1000 nM	0.916	–
FT3469 [10], 3000 nM	5.6	–

CN(C)CCN(Cc1ccc(Cl)cc1)c1ccccn1 [Chloropyramine hydrochloride]
Settings	phenotypic distance	surviving fraction
E13 [4], 4.1 nM	–	0.918
E13 [4], 12.3 nM	–	0.933
E13 [4], 37 nM	–	0.988
E13 [4], 111.1 nM	–	0.881
E13 [4], 333.3 nM	–	0.847
E13 [4], 1000 nM	–	0.953
E13 [4], 3000 nM	–	0.933
E13 [11], 4.1 nM	0.601	–
E13 [11], 12.3 nM	0.447	–
E13 [11], 37 nM	0.683	–
E13 [11], 111.1 nM	0.455	–
E13 [11], 333.3 nM	0.745	–
E13 [11], 1000 nM	1.13	–
E13 [11], 3000 nM	0.879	–
E21 [2], 4.1 nM	–	0.942
E21 [2], 12.3 nM	–	1.03
E21 [2], 37 nM	–	0.87
E21 [2], 111.1 nM	–	0.922
E21 [2], 333.3 nM	–	0.993
E21 [2], 1000 nM	–	1.12
E21 [2], 3000 nM	–	1.08
E21 [9], 4.1 nM	0.655	–
E21 [9], 12.3 nM	0.862	–
E21 [9], 37 nM	0.953	–
E21 [9], 111.1 nM	0.778	–
E21 [9], 333.3 nM	0.678	–
E21 [9], 1000 nM	1.38	–
E21 [9], 3000 nM	1.62	–
E28 [6], 4.1 nM	–	1.1
E28 [6], 12.3 nM	–	0.995
E28 [6], 37 nM	–	1.11
E28 [6], 111.1 nM	–	0.91
E28 [6], 333.3 nM	–	1.03
E28 [6], 1000 nM	–	1.19
E28 [6], 3000 nM	–	1.13
E28 [13], 4.1 nM	1.02	–
E28 [13], 12.3 nM	1.04	–
E28 [13], 37 nM	0.979	–
E28 [13], 111.1 nM	0.796	–
E28 [13], 333.3 nM	1.02	–
E28 [13], 1000 nM	0.889	–
E28 [13], 3000 nM	0.936	–
E31 [5], 4.1 nM	–	0.968
E31 [5], 12.3 nM	–	0.91
E31 [5], 37 nM	–	0.853
E31 [5], 111.1 nM	–	0.919
E31 [5], 333.3 nM	–	0.897
E31 [5], 1000 nM	–	0.946
E31 [5], 3000 nM	–	0.856
E31 [12], 4.1 nM	1.06	–
E31 [12], 12.3 nM	0.615	–
E31 [12], 37 nM	0.841	–
E31 [12], 111.1 nM	0.689	–
E31 [12], 333.3 nM	0.862	–
E31 [12], 1000 nM	0.815	–
E31 [12], 3000 nM	0.985	–
E34 [1], 4.1 nM	–	0.981
E34 [1], 12.3 nM	–	0.964
E34 [1], 37 nM	–	1.06
E34 [1], 111.1 nM	–	0.866
E34 [1], 333.3 nM	–	0.942
E34 [1], 1000 nM	–	1.14
E34 [1], 3000 nM	–	1
E34 [8], 4.1 nM	1.29	–
E34 [8], 12.3 nM	1.02	–
E34 [8], 37 nM	1.15	–
E34 [8], 111.1 nM	2.53	–
E34 [8], 333.3 nM	0.82	–
E34 [8], 1000 nM	0.757	–
E34 [8], 3000 nM	1.2	–
E57 [7], 4.1 nM	–	0.916
E57 [7], 12.3 nM	–	0.978
E57 [7], 37 nM	–	0.96
E57 [7], 111.1 nM	–	0.936
E57 [7], 333.3 nM	–	0.986
E57 [7], 1000 nM	–	1.02
E57 [7], 3000 nM	–	1.03
E57 [14], 4.1 nM	0.61	–
E57 [14], 12.3 nM	0.445	–
E57 [14], 37 nM	0.59	–
E57 [14], 111.1 nM	0.607	–
E57 [14], 333.3 nM	0.699	–
E57 [14], 1000 nM	0.663	–
E57 [14], 3000 nM	0.75	–
FT3469 [3], 4.1 nM	–	0.774
FT3469 [3], 12.3 nM	–	1.01
FT3469 [3], 37 nM	–	0.947
FT3469 [3], 111.1 nM	–	0.867
FT3469 [3], 333.3 nM	–	0.758
FT3469 [3], 1000 nM	–	0.878
FT3469 [3], 3000 nM	–	0.928
FT3469 [10], 4.1 nM	1.06	–
FT3469 [10], 12.3 nM	0.715	–
FT3469 [10], 37 nM	0.697	–
FT3469 [10], 111.1 nM	0.656	–
FT3469 [10], 333.3 nM	0.847	–
FT3469 [10], 1000 nM	0.895	–
FT3469 [10], 3000 nM	0.975	–

From the supplement of paper PMC13207355
